Paper PMC5617771 (Bioorganic & medicinal chemistry, 2017)

What was measured:
[1] = system: HIV-1 LAI; assay: Antiviral activity in MT-2 cells exposed to HIV-1 LAI; type: cell-based; details: for fold improvement in antiviral assay with respect to 3b: relative to 3b
[2] = target: HIV-1 protease (Human immunodeficiency virus type 1 group M subtype B, UniProt P04585); assay: HIV-1 protease enzyme inhibition; type: biochemical

Compound: COc1ccc(S(=O)(=O)N(CC(C)C)C[C@@H](O)[C@H](Cc2ccccc2)NC(=O)c2cccc(C(=O)N(C)Cc3coc(C)n3)c2)cc1 [Inhibitor 3c, N^1-((2S,3R)-3-hydroxy-4-((N-isobutyl-4-methoxyphenyl)sulfonamido)-1-phenylbutan-2-yl)-N^3-methyl-N^3-((2-methyloxazol-4-yl)methyl)isophthalamide]
- fold improvement in antiviral assay with respect to 3b [1]: over 20 fold

Compound: COc1ccc(S(=O)(=O)N(CC(C)C)C[C@@H](O)[C@H](Cc2ccccc2)NC(=O)c2cccc(C(=O)N(C)Cc3csc(C)n3)c2)cc1 [Inhibitor 3d, N^1-((2S,3R)-3-hydroxy-4-((N-isobutyl-4-methoxyphenyl)sulfonamido)-1-phenylbutan-2-yl)-N^3-methyl-N^3-((2-methylthiazol-4-yl)methyl)isophthalamide]
- fold enhanced protease inhibitory activity over 3c ([2]; relative to 3c): 5 fold
- fold improvement in antiviral assay with respect to 3b [1]: over 20 fold

Compound: COc1ccc(S(=O)(=O)N(CC(C)C)C[C@@H](O)[C@H](Cc2ccccc2)NC(=O)c2cc(O)cc(C(=O)N(C)Cc3nc(C)oc3C)c2)cc1 [Inhibitor 3f, N^1-((2,5-dimethyloxazol-4-yl)methyl)-5-hydroxy-N^3-((2S,3R)-3-hydroxy-4-((N-isobutyl-4-methoxyphenyl)sulfonamido)-1-phenylbutan-2-yl)-N^1-methylisophthalamide]
- fold protease inhibitory potency over methylamino analogue 3e ([2]; relative to 3e): 10 fold

Compound: COc1ccc(S(=O)(=O)N(CC(C)C)C[C@@H](O)[C@H](Cc2ccccc2)NC(=O)c2cccc(C(=O)N3CCC[C@@H]3c3nc(C)cs3)c2)cc1 [Inhibitor 4b, N-((2S,3R)-3-hydroxy-4-((N-isobutyl-4-methoxyphenyl)sulfonamido)-1-phenylbutan-2-yl)-3-((R)-2-(4-methylthiazol-2-yl)pyrrolidine-1-carbonyl)benzamide]
- fold improved potency over (S) counterpart 4a ([2]; relative to 4a): over 100 fold

Compound: COc1ccc(S(=O)(=O)N(CC(C)C)C[C@@H](O)[C@H](Cc2ccccc2)NC(=O)c2cccc(C(=O)N3CCC[C@@H]3c3nc(C)co3)c2)cc1 [Inhibitor 4h, N-((2S,3R)-3-hydroxy-4-((N-isobutyl-4-methoxyphenyl)sulfonamido)-1-phenylbutan-2-yl)-3-((R)-2-(4-methyloxazol-2-yl)pyrrolidine-1-carbonyl)benzamide]
- fold improved antiviral profile with respect to 4g ([1]; relative to 4g): 10 fold
